From US6670446B1, “N1 modified glycopeptides” (Eli Lilly and Company, priority 1998, dated 2003)

Experiments:
Type in all cases: cell-based
[1] = tested on: Resistant Enterococcus faecium and faecalis; experiment: MIC, standard broth micro-dilution assay, Resistant; conditions: geometric mean of 4-6 isolates
Procedure: (§1) The antibacterial efficacy of the present compounds is illustrated by Table III. The minimal inhibitory concentrations (MICs) were determined using a standard broth micro-dilution assay.

[2] = tested on: Sensitive Enterococcus faecium and faecalis; experiment: MIC, standard broth micro-dilution assay, Sensitive; conditions: geometric mean of 4-6 isolates
Procedure: as §1

[3] = tested on: Staphylococcus aureus 446; experiment: MIC, standard broth micro-dilution assay, SA 446
Procedure: as §1

[4] = tested on: Staphylococcus aureus 489; experiment: MIC, standard broth micro-dilution assay, SA 489
Procedure: as §1

[5] = tested on: Staphylococcus aureus 447; experiment: MIC, standard broth micro-dilution assay, SA 447
Procedure: as §1

[6] = tested on: Staphylococcus aureus X400; experiment: MIC, standard broth micro-dilution assay, SA X400
Procedure: as §1

[7] = tested on: Staphylococcus aureus X778; experiment: MIC, standard broth micro-dilution assay, SA X778
Procedure: as §1

[8] = tested on: Staphylococcus aureus 491; experiment: MIC, standard broth micro-dilution assay, SA 491
Procedure: as §1

[9] = tested on: Staphylococcus aureus S13E
Procedure: as §1

[10] = tested on: Staphylococcus aureus SA1199; experiment: MIC, standard broth micro-dilution assay, SA 1199
Procedure: as §1

[11] = tested on: Staphylococcus aureus SA1199A; experiment: MIC, standard broth micro-dilution assay, SA 1199A
Procedure: as §1

[12] = tested on: Staphylococcus haemolyticus 105; experiment: MIC, standard broth micro-dilution assay, SH 105
Procedure: as §1

[13] = tested on: Staphylococcus haemolyticus 415; experiment: MIC, standard broth micro-dilution assay, SH 415
Procedure: as §1

[14] = tested on: Staphylococcus epidermidis 270; experiment: MIC, standard broth micro-dilution assay, SE 270
Procedure: as §1

Enterococcus faecium 180 = experiment: MIC, standard broth micro-dilution assay, EF 180
Procedure: as §1

[15] = tested on: Enterococcus faecium 180-1; experiment: MIC, standard broth micro-dilution assay, EF 180-1
Procedure: as §1

[16] = tested on: Enterococcus faecalis 2041; experiment: MIC, standard broth micro-dilution assay, EF 2041
Procedure: as §1

[17] = tested on: Enterococcus faecalis 276; experiment: MIC, standard broth micro-dilution assay, EF 276
Procedure: as §1

[18] = tested on: Enterococcus gallinarum 245; experiment: MIC, standard broth micro-dilution assay, EG 245
Procedure: as §1

[19] = tested on: Haemophilus influenzae RD; experiment: MIC, standard broth micro-dilution assay, HFRD
Procedure: as §1

Escherichia coli EC14 = experiment: MIC, standard broth micro-dilution assay, EC 14
Procedure: as §1

SMILES: CC1OC(OC2C(Oc3c4cc5cc3Oc3ccc(cc3Cl)[C@@H](O)[C@@H](NC(=O)c3ccc(-c6ccccc6)cc3)C(=O)N[C@@H](CC(N)=O)C(=O)N[C@H]5C(=O)N[C@H]3C(=O)NC(C(=O)N[C@H](C(=O)O)c5cc(O)cc(O)c5-c5cc3ccc5O)[C@H](OC3CC(C)(N)C(O)C(C)O3)c3ccc(c(Cl)c3)O4)OC(CO)C(O)C2O)CC(C)(N)C1O (some centres unmarked) [Example 1, N^1-(p-phenylbenzoyl)desleucylA82846B]
- minimal inhibitory concentration (MIC), Resistant [1]: >128
- minimal inhibitory concentration (MIC), Sensitive [2]: 4
- minimal inhibitory concentration (MIC), SA 446 [3]: 1
- minimal inhibitory concentration (MIC), SA 489 [4]: 0.5
- minimal inhibitory concentration (MIC), SA 447 [5]: 0.25
- minimal inhibitory concentration (MIC), SA X400 [6]: 0.5
- minimal inhibitory concentration (MIC), SA X778 [7]: 0.125
- minimal inhibitory concentration (MIC), SA 491 [8]: 0.5
- minimal inhibitory concentration (MIC), SA S13E [9]: 0.25
- minimal inhibitory concentration (MIC), SA 1199 [10]: 0.125
- minimal inhibitory concentration (MIC), SA 1199A [11]: ≦.06
- minimal inhibitory concentration (MIC), SH 105 [12]: 2
- minimal inhibitory concentration (MIC), SH 415 [13]: 4
- minimal inhibitory concentration (MIC), SE 270 [14]: 0.5
- minimal inhibitory concentration (MIC), EF 180 (Enterococcus faecium 180): 64
- minimal inhibitory concentration (MIC), EF 180-1 [15]: 0.125
- minimal inhibitory concentration (MIC), EF 2041 [16]: 0.125
- minimal inhibitory concentration (MIC), EF 276 [17]: 0.125
- minimal inhibitory concentration (MIC), EG 245 [18]: 2
- minimal inhibitory concentration (MIC), HFRD [19]: no growth
- minimal inhibitory concentration (MIC), EC 14 (Escherichia coli EC14): >64

SMILES: CC1OC(OC2C(Oc3c4cc5cc3Oc3ccc(cc3Cl)[C@@H](O)[C@@H](NC(=O)CCCCCCCc3ccccc3)C(=O)N[C@@H](CC(N)=O)C(=O)N[C@H]5C(=O)N[C@H]3C(=O)NC(C(=O)N[C@H](C(=O)O)c5cc(O)cc(O)c5-c5cc3ccc5O)[C@H](OC3CC(C)(N)C(O)C(C)O3)c3ccc(c(Cl)c3)O4)OC(CO)C(O)C2O)CC(C)(N)C1O (some centres unmarked) [Example 2, N^1-(8-phenyl-n-octanoyl)desleucylA82846B]
- minimal inhibitory concentration (MIC), Resistant [1]: >128
- minimal inhibitory concentration (MIC), Sensitive [2]: 1.5
- minimal inhibitory concentration (MIC), SA 446 [3]: ≦.06
- minimal inhibitory concentration (MIC), SA 489 [4]: ≦.06
- minimal inhibitory concentration (MIC), SA 447 [5]: ≦.06
- minimal inhibitory concentration (MIC), SA X400 [6]: ≦.06
- minimal inhibitory concentration (MIC), SA X778 [7]: ≦.06
- minimal inhibitory concentration (MIC), SA 491 [8]: ≦.06
- minimal inhibitory concentration (MIC), SA S13E [9]: ≦.06
- minimal inhibitory concentration (MIC), SA 1199 [10]: 0.125
- minimal inhibitory concentration (MIC), SA 1199A [11]: ≦.06
- minimal inhibitory concentration (MIC), SH 105 [12]: 1
- minimal inhibitory concentration (MIC), SH 415 [13]: 8
- minimal inhibitory concentration (MIC), SE 270 [14]: 0.125
- minimal inhibitory concentration (MIC), EF 180 (Enterococcus faecium 180): 8
- minimal inhibitory concentration (MIC), EF 180-1 [15]: ≦.06
- minimal inhibitory concentration (MIC), EF 2041 [16]: ≦.06
- minimal inhibitory concentration (MIC), EF 276 [17]: ≦.06
- minimal inhibitory concentration (MIC), EG 245 [18]: 0.25
- minimal inhibitory concentration (MIC), HFRD [19]: no growth
- minimal inhibitory concentration (MIC), EC 14 (Escherichia coli EC14): >64

SMILES: CC1OC(OC2c3ccc(c(Cl)c3)Oc3cc4cc(c3OC3OC(CO)C(O)C(O)C3OC3CC(C)(NCc5ccc(-c6ccccc6)cc5)C(O)C(C)O3)Oc3ccc(cc3Cl)C(O)C(NC(=O)CCCCCCCc3ccccc3)C(=O)NC(CC(N)=O)C(=O)NC4C(=O)NC3C(=O)NC2C(=O)NC(C(=O)O)c2cc(O)cc(O)c2-c2cc3ccc2O)CC(C)(N)C1O (centres unmarked) [Example 3, N^1-(8-phenyl-n-octanoyl)-N^DISACC-(p-phenylbenzyl)desleucylA82846B]
- minimal inhibitory concentration (MIC), Resistant [1]: 6.7
- minimal inhibitory concentration (MIC), Sensitive [2]: 2.6
- minimal inhibitory concentration (MIC), SA 446 [3]: 1
- minimal inhibitory concentration (MIC), SA 489 [4]: 1
- minimal inhibitory concentration (MIC), SA 447 [5]: 1
- minimal inhibitory concentration (MIC), SA X400 [6]: 1
- minimal inhibitory concentration (MIC), SA X778 [7]: 1
- minimal inhibitory concentration (MIC), SA 491 [8]: 1
- minimal inhibitory concentration (MIC), SA S13E [9]: 2
- minimal inhibitory concentration (MIC), SA 1199 [10]: 1
- minimal inhibitory concentration (MIC), SA 1199A [11]: 0.5
- minimal inhibitory concentration (MIC), SH 105 [12]: 1
- minimal inhibitory concentration (MIC), SH 415 [13]: 2
- minimal inhibitory concentration (MIC), SE 270 [14]: 1
- minimal inhibitory concentration (MIC), EF 180 (Enterococcus faecium 180): 1
- minimal inhibitory concentration (MIC), EF 180-1 [15]: ≦.06
- minimal inhibitory concentration (MIC), EF 2041 [16]: 0.5
- minimal inhibitory concentration (MIC), EF 276 [17]: 0.5
- minimal inhibitory concentration (MIC), EG 245 [18]: 2
- minimal inhibitory concentration (MIC), HFRD [19]: >64
- minimal inhibitory concentration (MIC), EC 14 (Escherichia coli EC14): >64

SMILES: CC(C)CCC(=O)N[C@H]1C(=O)N[C@@H](CC(N)=O)C(=O)N[C@H]2C(=O)N[C@H]3C(=O)NC(C(=O)N[C@H](C(=O)O)c4cc(O)cc(O)c4-c4cc3ccc4O)[C@H](OC3CC(C)(N)C(O)C(C)O3)c3ccc(c(Cl)c3)Oc3cc2cc(c3OC2OC(CO)C(O)C(O)C2OC2CC(C)(N)C(O)C(C)O2)Oc2ccc(cc2Cl)[C@H]1O (some centres unmarked) [Example 4, N^1-(4-methyl-n-pentanoyl)desleucylA82846B]
- minimal inhibitory concentration (MIC), Resistant [1]: >128
- minimal inhibitory concentration (MIC), Sensitive [2]: 4
- minimal inhibitory concentration (MIC), SA 446 [3]: 1
- minimal inhibitory concentration (MIC), SA 489 [4]: 0.5
- minimal inhibitory concentration (MIC), SA 447 [5]: 1
- minimal inhibitory concentration (MIC), SA X400 [6]: 0.25
- minimal inhibitory concentration (MIC), SA X778 [7]: 0.5
- minimal inhibitory concentration (MIC), SA 491 [8]: 0.125
- minimal inhibitory concentration (MIC), SA S13E [9]: 0.5
- minimal inhibitory concentration (MIC), SA 1199 [10]: 0.5
- minimal inhibitory concentration (MIC), SA 1199A [11]: 0.5
- minimal inhibitory concentration (MIC), SH 105 [12]: 0.25
- minimal inhibitory concentration (MIC), SH 415 [13]: 16
- minimal inhibitory concentration (MIC), SE 270 [14]: 0.5
- minimal inhibitory concentration (MIC), EF 180 (Enterococcus faecium 180): >64
- minimal inhibitory concentration (MIC), EF 180-1 [15]: 0.5
- minimal inhibitory concentration (MIC), EF 2041 [16]: 1
- minimal inhibitory concentration (MIC), EF 276 [17]: 0.5
- minimal inhibitory concentration (MIC), EG 245 [18]: 4
- minimal inhibitory concentration (MIC), HFRD [19]: >64
- minimal inhibitory concentration (MIC), EC 14 (Escherichia coli EC14): >64

SMILES: CC1OC(OC2c3ccc(c(Cl)c3)Oc3cc4cc(c3OC3OC(CO)C(O)C(O)C3OC3CC(C)(NCc5ccc(-c6ccc(Cl)cc6)cc5)C(O)C(C)O3)Oc3ccc(cc3Cl)C(O)C(NC(=O)CCCCCCN)C(=O)NC(CC(N)=O)C(=O)NC4C(=O)NC3C(=O)NC2C(=O)NC(C(=O)O)c2cc(O)cc(O)c2-c2cc3ccc2O)CC(C)(N)C1O (centres unmarked) [Example 10, N^1-(7-amino-n-heptanoyl)-N^DISACC-[p-(p-chlorophenyl)benzyl]desleucylA82846B]
- minimal inhibitory concentration (MIC), Resistant [1]: 5.7
- minimal inhibitory concentration (MIC), Sensitive [2]: 0.57

SMILES: CC(C)C[C@@H](NC(=O)OC(C)(C)C)C(=O)N[C@H]1C(=O)N[C@@H](CC(N)=O)C(=O)N[C@H]2C(=O)N[C@H]3C(=O)NC(C(=O)N[C@H](C(=O)O)c4cc(O)cc(O)c4-c4cc3ccc4O)[C@H](OC3CC(C)(N)C(O)C(C)O3)c3ccc(c(Cl)c3)Oc3cc2cc(c3OC2OC(CO)C(O)C(O)C2OC2CC(C)(N)C(O)C(C)O2)Oc2ccc(cc2Cl)[C@H]1O (stereo partly drawn) [Example 14, N^1-(N-BOC-D-leucine) derivative of desleucylA82846B]
- minimal inhibitory concentration (MIC), Resistant [1]: >128
- minimal inhibitory concentration (MIC), Sensitive [2]: 6.1

SMILES: CC1OC(OC2C(Oc3c4cc5cc3Oc3ccc(cc3Cl)[C@@H](O)[C@@H](NC(=O)[C@@H](CCCCNC(=O)OC(C)(C)C)NC(=O)OC(C)(C)C)C(=O)N[C@@H](CC(N)=O)C(=O)N[C@H]5C(=O)N[C@H]3C(=O)NC(C(=O)N[C@H](C(=O)O)c5cc(O)cc(O)c5-c5cc3ccc5O)[C@H](OC3CC(C)(N)C(O)C(C)O3)c3ccc(c(Cl)c3)O4)OC(CO)C(O)C2O)CC(C)(N)C1O (stereo partly drawn) [Example 16, N^1-(N,N′-DIBOC-D-lysine) derivative of desleucylA82846B]
- minimal inhibitory concentration (MIC), Resistant [1]: >128
- minimal inhibitory concentration (MIC), Sensitive [2]: 7

SMILES: CNC(C(=O)NC1C(=O)NC(CC(N)=O)C(=O)NC2C(=O)NC3C(=O)NC(C(=O)NC(C(=O)O)c4cc(O)cc(O)c4-c4cc3ccc4O)C(OC3CC(C)(N)C(O)C(C)O3)c3ccc(c(Cl)c3)Oc3cc2cc(c3OC2OC(CO)C(O)C(O)C2OC2CC(C)(N)C(O)C(C)O2)Oc2ccc(cc2Cl)C1O)C(C)C [Example 42, N^1-(N-methyl-D-valine) derivative of desleucylA82846B]
- minimal inhibitory concentration (MIC), Resistant [1]: 128
- minimal inhibitory concentration (MIC), Sensitive [2]: 0.66
- minimal inhibitory concentration (MIC), SA 446 [3]: 0.5
- minimal inhibitory concentration (MIC), SA 489 [4]: 0.5
- minimal inhibitory concentration (MIC), SA 447 [5]: 0.5
- minimal inhibitory concentration (MIC), SA X400 [6]: 0.5
- minimal inhibitory concentration (MIC), SA X778 [7]: 2
- minimal inhibitory concentration (MIC), SA 491 [8]: 1
- minimal inhibitory concentration (MIC), SA S13E [9]: 1
- minimal inhibitory concentration (MIC), SH 105 [12]: 0.5
- minimal inhibitory concentration (MIC), SH 415 [13]: 1
- minimal inhibitory concentration (MIC), SE 270 [14]: 1
- minimal inhibitory concentration (MIC), EF 180 (Enterococcus faecium 180): 64
- minimal inhibitory concentration (MIC), EC 14 (Escherichia coli EC14): >64
